The results in this text go back to PubChem BioAssay (NCI).

Test systems include EKVX NSCLC; COLO 205 colon; SF-539 CNS; NCI/ADR-RES ovarian; RPMI-8226 leukemia; SF-295 CNS; IGROV1 ovarian; T-47D breast; OVCAR-4 ovarian; MDA-MB-231 breast; NCI-H226 lung; 786-0 renal; A549 NSCLC; BT-549 breast; LOX IMVI melanoma.
Common to all, as to test: DTP human tumour cell line panel, 48 h

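Dose response: 5 concentrations. Exposure: 48 h. Format: 96-well plates. Endpoint: linear interpolation; highest concentration if not reached. TGI is the concentration that stops growth completely.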

Regarding `CCOC(=O)C1(Cc2ccccc2)CCN(C(=O)c2ccccc2)C2C1C2(Cl)Cl` (stereo not given), the TGI (usually the concentration giving total growth inhibition) in the assay on EKVX NSCLC was 71.7 µM; with COLO 205 colon it was 35.9 µM; with SF-539 CNS it was 38.5 µM; with NCI/ADR-RES ovarian it was 69 µM; in the assay with RPMI-8226 leukemia, 38.2 µM; in the assay with SF-295 CNS, 77.2 µM. In addition, the TGI is over 100 µM in the assay on IGROV1 ovarian; 62.4 µM in the assay on T-47D breast; over 100 µM in the assay on OVCAR-4 ovarian; 43.9 µM in the assay on MDA-MB-231 breast; 63.4 µM in the assay on NCI-H226 lung; 44.2 µM in the assay with 786-0 renal. The TGI was over 100 µM with A549 NSCLC, 62.2 µM in the assay with BT-549 breast and 34.5 µM in the assay with LOX IMVI melanoma.

Take `CCOC(=O)NNC1(SC)NC(=O)c2c(cc(Cl)oc2=O)O1` (stereo not given): the TGI with EKVX NSCLC came to 20.4 µM; in the assay with COLO 205 colon, 25.9 µM; in the assay with SF-539 CNS, 4.57 µM; in the assay on NCI/ADR-RES ovarian, 25.7 µM; in the assay with RPMI-8226 leukemia it was 7.65 µM; in the assay on SF-295 CNS, 25.9 µM. Moreover, the TGI turned out to be 14.5 µM in the assay with IGROV1 ovarian; 29.9 µM with T-47D breast; 18.9 µM in the assay with OVCAR-4 ovarian; 25.1 µM with MDA-MB-231 breast; 43.8 µM in the assay with NCI-H226 lung; 4.84 µM in the assay on 786-0 renal. For the same compound, the TGI in the assay with A549 NSCLC is 21.1 µM; with BT-549 breast it was 12.2 µM; in the assay with LOX IMVI melanoma, 6.18 µM.

Turning to `COc1ccc2c(-c3ccc(O)cc3)c(Oc3ccccc3)c(=O)oc2c1`, the TGI with EKVX NSCLC is over 77.8 µM; in the assay on COLO 205 colon, over 100 µM; in the assay on SF-539 CNS, over 100 µM; in the assay on NCI/ADR-RES ovarian it was over 100 µM; in the assay with RPMI-8226 leukemia it was over 100 µM; in the assay on SF-295 CNS, over 100 µM. Further, the TGI in the assay with IGROV1 ovarian was over 62.3 µM; in the assay with T-47D breast, over 100 µM; with OVCAR-4 ovarian it was over 100 µM; in the assay with MDA-MB-231 breast, over 100 µM; in the assay on NCI-H226 lung, over 87.2 µM; with 786-0 renal, over 52.1 µM. The TGI in the assay with A549 NSCLC is over 43 µM; in the assay on BT-549 breast, over 100 µM; with LOX IMVI melanoma, over 100 µM.

Regarding `C(/C=N/NC1=NCCN1)=N\NC1=NCCN1`, the TGI with EKVX NSCLC, in the assay on COLO 205 colon, with SF-539 CNS, with NCI/ADR-RES ovarian, in the assay on RPMI-8226 leukemia and in the assay with SF-295 CNS was over 100 µM throughout. In addition, the TGI with IGROV1 ovarian, in the assay on T-47D breast, with OVCAR-4 ovarian, with MDA-MB-231 breast, in the assay on NCI-H226 lung and with 786-0 renal was over 100 µM throughout. Moreover, the TGI in the assay with A549 NSCLC, in the assay with BT-549 breast and in the assay on LOX IMVI melanoma was over 100 µM throughout.

On to `CC1=NN(C(=O)CC(=O)Nc2cccc(Cl)c2)C(=O)C1N=Nc1ccc(S(=O)(=O)c2ccc(N=NC3C(=O)N(C(=O)CC(=O)Nc4cccc(Cl)c4)N=C3C)cc2)cc1` (stereo not given), for which the TGI was over 100 µM in the assay with EKVX NSCLC; over 100 µM with COLO 205 colon; 55.6 µM with SF-539 CNS; over 100 µM in the assay on NCI/ADR-RES ovarian; over 100 µM in the assay on RPMI-8226 leukemia; over 100 µM with SF-295 CNS. In addition, the TGI is over 100 µM in the assay with IGROV1 ovarian; over 100 µM with T-47D breast; over 100 µM in the assay on OVCAR-4 ovarian; 52.2 µM with MDA-MB-231 breast; over 100 µM with NCI-H226 lung; over 100 µM with 786-0 renal. Besides, the TGI in the assay with A549 NSCLC, in the assay with BT-549 breast and in the assay on LOX IMVI melanoma was over 100 µM each time.

Take `CCOC(=O)c1cc2cc(CSc3ccccc3)ccc2oc1=O`: the concentration for total growth inhibition (TGI) in the assay with EKVX NSCLC, in the assay with COLO 205 colon, with SF-539 CNS, with NCI/ADR-RES ovarian, in the assay with RPMI-8226 leukemia and in the assay on SF-295 CNS was over 100 µM each time. Besides, the TGI in the assay on IGROV1 ovarian, in the assay on T-47D breast, in the assay on OVCAR-4 ovarian, in the assay on MDA-MB-231 breast, with NCI-H226 lung and in the assay with 786-0 renal was over 100 µM in each case. The TGI with A549 NSCLC, in the assay on BT-549 breast and in the assay with LOX IMVI melanoma was over 100 µM each time.

With `COc1cc(/C=C2\CCc3cc(OC)c(OC)cc3C2=O)cc(OC)c1`, the TGI in the assay with EKVX NSCLC is over 100 µM; in the assay on COLO 205 colon, over 52.1 µM; in the assay with SF-539 CNS, over 31 µM; with NCI/ADR-RES ovarian it was 10.9 µM; in the assay on RPMI-8226 leukemia, over 60.1 µM; in the assay on SF-295 CNS, over 25.1 µM. The TGI is over 100 µM with IGROV1 ovarian; 62.1 µM in the assay with T-47D breast; over 100 µM in the assay with OVCAR-4 ovarian; over 100 µM in the assay with MDA-MB-231 breast; over 100 µM with NCI-H226 lung; 48.7 µM in the assay on 786-0 renal. Besides, the TGI is over 100 µM in the assay on A549 NSCLC, 65.8 µM in the assay with BT-549 breast and 30.9 µM in the assay with LOX IMVI melanoma.

For the compound `O=C(/C=C/c1ccc(Cl)c(Cl)c1)CCN1CCN(CCC(=O)/C=C/c2ccc(Cl)c(Cl)c2)CC1`, the TGI in the assay on EKVX NSCLC is over 100 µM; in the assay with COLO 205 colon, 70.8 µM; with SF-539 CNS it was 30.7 µM; with NCI/ADR-RES ovarian it was over 100 µM; in the assay with RPMI-8226 leukemia, over 100 µM; with SF-295 CNS, 46.5 µM. Besides, the TGI came out at 49 µM in the assay on IGROV1 ovarian; 77.4 µM in the assay on T-47D breast; 46.7 µM in the assay with OVCAR-4 ovarian; 56.7 µM in the assay with MDA-MB-231 breast; 72.8 µM with NCI-H226 lung; 21 µM in the assay on 786-0 renal. Further, the TGI in the assay on A549 NSCLC was over 100 µM; in the assay with BT-549 breast, 59.8 µM; with LOX IMVI melanoma, 33.7 µM.

On to `CC(=O)O/C(=C(/C#N)C(=O)O)C1C(C(=O)O)C(c2ccccc2[N+](=O)[O-])C=C(c2ccco2)N1c1ccncc1` (stereo not given), for which the TGI with EKVX NSCLC amounted to 22.1 µM; in the assay with COLO 205 colon it was 7.82 µM; in the assay with SF-539 CNS it was 3.89 µM; with NCI/ADR-RES ovarian it was 36.6 µM; in the assay with RPMI-8226 leukemia, 4.46 µM; with SF-295 CNS, 19.2 µM. Moreover, the concentration for total growth inhibition (TGI) with IGROV1 ovarian is 3.29 µM; in the assay on T-47D breast it was 18.4 µM; with OVCAR-4 ovarian it was 37.4 µM; with MDA-MB-231 breast, 14.6 µM; in the assay on NCI-H226 lung, 18.9 µM; in the assay on 786-0 renal it was 6.62 µM. For the same compound, the TGI in the assay on A549 NSCLC is 26.7 µM; in the assay on BT-549 breast it was 16.3 µM; in the assay with LOX IMVI melanoma, 5.78 µM.
